According to patent US7842660B2, “4-hepten-2-yl salicylate and its use as fragrance ingredient” (Givaudan SA, priority 2004, dated 2010):

Test system: panel of trained evaluators
Assay: Determination of the GC-odor threshold values (gas chromatograph with sniff port)
Conditions: for odor threshold value, geometric mean: GC sniff port, absolute amount of compound delivered at the sniff port, identical conditions
Text: As used herein “odor threshold value” means the lowest concentration of a vapor in the air which can be detected by smell. Generally speaking, it can be said that a compound with a low odor threshold value is more powerful than a compound with a high odor threshold value and thus allows the use of a very low concentration in a fragrance composition to achieve an olfactory effect. According to standard procedures known to the person skilled in the art, threshold values for volatile perfumery compounds are determined on a gas chromatograph equipped with a sniff port by a panel of trained evaluators. The lowest concentration smelled by each panelist is recorded as the individual threshold value expressed in ng (absolute amount of compound delivered at the sniff port). By way of comparison, there were also tested (Z)-2-methyl-3-hexen-1-yl salicylate and (Z)-3-hexen-1-yl 2-hydroxy-3-methylbenzoate. The objective was to show the considerable effect exerted by the position of a substituent. Under identical conditions the odor threshold value for the individual compounds was measured.

SMILES | odor threshold value, geometric mean [ng] | odor threshold of the (Z)-isomer relative to the (E)-isomer (times lower) ((Z)- vs (E)-4-hepten-2-yl salicylate)
CC/C=C\C(C)COC(=O)c1ccccc1O (centres unmarked) [(Z)-2-Methyl-3-hexen-1-yl salicylate] | 10 | –
CC/C=C\CCOC(=O)c1cccc(C)c1O [(Z)-3-Hexen-1-yl 2-hydroxy-3-methylbenzoate] | 201 | –
CC/C=C\CCOC(=O)c1ccccc1O [(Z)-3-Hexen-1-yl salicylate] | 0.92 | –
CC/C=C\CC(C)OC(=O)c1ccccc1O (centres unmarked) [(Z)-4-Hepten-2-yl salicylate] | 0.77 | about 10 times
